Assay results from paper PMC9065678, “BI 1015550 is a PDE4B Inhibitor and a Clinical Drug Candidate for the Oral Treatment of Idiopathic Pulmonary Fibrosis” (Frontiers in Pharmacology, 2022).
pIC50: −log10 of the molar value. Marks after values point to notes of the source that are not given here.

Key:
[1] = target: T1, PDE4B (Homo sapiens, UniProt Q07343); experiment: Recombinant PDE activity, scintillation proximity assay: PDE4B; type: biochemical
T1 construct: PDE4B NG_029038: AA 152–484; made in house; host or cells: SF9 insect cells (baculovirus, Bac-To-Bac, pFastbac)
Method: For the preparation of human recombinant PDEs of interest, the Bac-To-Bac baculoviral expression system from Invitrogen (Carlsbad, CA, United States) was used according to the instruction manual. […] The plasmids were transformed into DH10Bac bacteria, SF9 insect cells were transfected with the bacmid DNA, and the resulting baculoviruses were stored and used for further rounds of infections. For protein production, SF9 cells were infected until a cytopathic effect was visible (after about 72 h), the SF9 cells were harvested and broken up by 3 freeze/thaw cycles, and by shearing 10 times through a 0.1 mm cannula using a syringe. […] The Phosphodiesterase Scintillation Proximity Assays (TRKQ7090 for [^3H]cAMP, GE Healthcare Europe GmbH, Chalfont St Giles, United Kingdom, and TRKQ7100 for [^3H]cGMP, Perkin Elmer, Waltham, MA, United States) were performed essentially according to the instruction manual. […] Assay solutions containing recombinant baculoviral-expressed PDE (to give an activity of 5.000–20.000 cpm corresponding to 5–20% of total activity added), 50 mmol/L Tris/HCl pH 7.5, 8.3 mmol/L MgCl2, 1.7 mmol/L EGTA, and 10 µL radiolabeled substrate (0.05 µCi in H2O) were incubated for 1 h at 30°C (final volume 100 μL).

[2] = tested on: LPS-induced lung neutrophil influx; experiment: LPS-induced lung neutrophil influx in male Wistar rats; type: in vivo, rat; settings: oral, data not shown
Description: Compared with other animal species used to study emesis induction by PDE4 inhibitors, like ferrets, dogs, minipigs, or monkeys, Suncus murinus allows the testing of a sufficient number of animals to provide a high statistical power. […] Male Suncus murinus (weight 50–55 g) from Boehringer Ingelheim (Biberach an der Riss, Germany) or male Wistar rats (200–250 g, Charles River), eight animals per group, were used. […] For this purpose, animals in the positive control and treatment groups were put into a circular Plexiglas chamber with 16 pie-like compartments for one animal each, and were consecutively exposed to nebulized LPS for 30 min. The LPS solution used for nebulization contained 1 mg/mL LPS in phosphate-buffered saline (PBS). Nebulization was performed with the commercially available PARI Master® nebulizer with a PARI Master® LL adapter (Pari GmbH, Starnberg, Germany). 4 h after LPS exposure, the animals were anesthetized and euthanized by cervical dislocation. After sacrifice, the trachea was cannulated and bronchoalveolar lavage was performed by instilling and re-aspirating two-times 1 mL (Suncus murinus) or 5 mL (rat) lavage buffer (PBS +2% bovine serum albumin). BALF volumes were recorded manually. Determination of neutrophil numbers in BALF was performed using a blood hemacytometer (Sysmex XT-1800i, Kobe, Japan).

[3] = tested on: silica-induced lung fibrosis; experiment: Silica-induced lung inflammation and fibrosis in the mouse; type: in vivo; settings: mice
Method: BI 1015550 was given at doses of 0.25, 0.75, and 2.5 mg/kg b.i.d. in Natrosol 0.5% (10 mL/kg) starting from day 10 after silica instillation until day 30 (therapeutic regimen). 8-week-old BL6 mice (mixed sex, Janvier Labs, Le Genest-Saint-Isle, France) were used. Details of the experimental methods are described elsewhere ([Lo Re et al., 2010]). Briefly, mice received silica particles at 2.5 mg/mouse by intranasal instillation. Control mice received the respective saline solution by intranasal instillation. Mice were killed 30 days after silica administration and macroscopic changes were recorded at post-mortem analysis. Lung weight was measured, BALF for total cell and differential cell counts as well as myeloperoxidase (MPO) activity and keratinocyte-derived cytokine (KC, the counterpart of human GRO protein) determination was generated, and lung histology (staining with HE and chromotrope-aniline blue with semi-quantitative analysis for the estimation of inflammation, granuloma, and fibrosis scores was done.

[4] = Off-target screening, Cerep high-throughput profile and non-kinase enzyme profile
[5] = 0.25 mg/kg b.i.d. oral day 10–30
[6] = 0.75 mg/kg b.i.d. oral day 10–30
[7] = 2.5 mg/kg b.i.d. oral day 10–30

T1 sequence (Q07343 324-656): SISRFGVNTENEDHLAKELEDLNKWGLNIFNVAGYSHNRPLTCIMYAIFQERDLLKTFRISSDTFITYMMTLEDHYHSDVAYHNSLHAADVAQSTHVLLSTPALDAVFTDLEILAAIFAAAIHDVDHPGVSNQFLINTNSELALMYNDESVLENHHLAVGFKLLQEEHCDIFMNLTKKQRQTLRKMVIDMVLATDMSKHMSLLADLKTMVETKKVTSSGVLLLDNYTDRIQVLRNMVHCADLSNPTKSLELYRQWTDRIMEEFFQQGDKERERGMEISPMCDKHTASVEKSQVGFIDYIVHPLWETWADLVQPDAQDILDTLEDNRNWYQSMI

[O-][S+]1CCc2nc(N3CCC(c4ncc(Cl)cn4)CC3)nc(NC3(CO)CCC3)c21 (stereo not shown) [BI 1015550]
Selectivity for inhibition of PDE4B versus PDE4D [1]: roughly 10 fold | pIC50 ([1]; human recombinant active site fragment, substrate [3H]cAMP, means from n independent experiments, read-out: IC50 PDE4B2): 8.00 | ED50 LPS-induced lung neutrophil influx [2]: 0.1 mg/kg | Fibrosis score, % change related to control animals [3, 5]: 5% | Granuloma score, % change related to control animals [3, 5]: –16% | Inflammation score, % change related to control animals [3, 5]: –4% | KC in BALF, % change related to control animals [3, 5]: 4% | Lung weight, % change related to control animals [3, 5]: –57% | Lymphocytes in BALF, % change related to control animals [3, 5]: –18% | MPO in BALF, % change related to control animals [3, 5]: –2% | Macrophages in BALF, % change related to control animals [3, 5]: –29% | Neutrophils in BALF, % change related to control animals [3, 5]: –35% | Total cells in BALF, % change related to control animals [3, 5]: –27% | Fibrosis score, % change related to control animals [3, 6]: –10% | Granuloma score, % change related to control animals [3, 6]: –11% | Inflammation score, % change related to control animals [3, 6]: 4% | KC in BALF, % change related to control animals [3, 6]: –39% | Lung weight, % change related to control animals [3, 6]: –46% | Lymphocytes in BALF, % change related to control animals [3, 6]: 49% | MPO in BALF, % change related to control animals [3, 6]: –22% | Macrophages in BALF, % change related to control animals [3, 6]: –11% | Neutrophils in BALF, % change related to control animals [3, 6]: 8% | Total cells in BALF, % change related to control animals [3, 6]: –13% | Fibrosis score, % change related to control animals [3, 7]: –15% | Granuloma score, % change related to control animals [3, 7]: –32% | Inflammation score, % change related to control animals [3, 7]: –19% | KC in BALF, % change related to control animals [3, 7]: –27% | Lung weight, % change related to control animals [3, 7]: –46% | Lymphocytes in BALF, % change related to control animals [3, 7]: –12% | MPO in BALF, % change related to control animals [3, 7]: –34% | Macrophages in BALF, % change related to control animals [3, 7]: –38* % | Neutrophils in BALF, % change related to control animals [3, 7]: –46* % | Total cells in BALF, % change related to control animals [3, 7]: –28% | Off-target effects [4]: not shown any other off-target effects
